Reference: patent US7635693B2, “Methods for preventing and treating cancer using N-thiolated β-lactam compounds and analogs thereof” (University of South Florida, priority 2002, dated 2009)
Where “and” joins values, the source holds several entries; their conditions need not be identical. Identical values can stand only once. Like-named read-outs stand apart in the source and are kept apart here.

Key:
[1] = test system: NK cells (YT line); details: YT cells, 30 μM, 24 h
Description: The trypan blue dye exclusion assay was performed by mixing 20 μl of cell suspension with 20 μl of 0.4% trypan blue dye before injecting into a hemocytometer and counting. The number of cells that absorbed the dye and those that exclude the dye were counted, from which the percentage of nonviable cell number to total cell number was calculated.

[2] = test system: LNCaP cells; details: LNCaP cells in soft agar, 50 μM, 21 day-incubation
Description: The soft agar assay was performed as described previously (Menter D G, Sabichi A L, Lippman S M., 2000, Selenium effects on prostate cell growth. Cancer Epidemiol Biomarkers Prev 9:1171-82) with a few modifications. In brief, in a six-well plate, a bottom feeder layer (0.6% agar) was prepared with DMEM media containing 10% fetal bovine serum, 100 units/ml penicillin, and 100 μg/ml streptomycin. […] Plates were incubated at 37° C. in 5% CO2 in a humidified incubator for three weeks. MTT (1 mg/ml) was added to each well and incubated overnight to allow complete formation of purple formazan crystals. The plates were then scanned and photographed, and the number of colonies was quantified by Quantity one v.4.0.3 software (Bio-Rad, Hercules, Calif.).

[3] = test system: Jurkat T cells; format: cell-based, human; details: for loss of membrane permeability (trypan blue incorporation): 8 hours
Description: The trypan blue exclusion assay was performed by injecting 10 μl of cell suspension containing 0.2% trypan blue dye into a hemoicytometer and counting. Numbers of cells that absorbed the dye and those that excluded the dye are counted, from which the percentage of non-viable cell number to total cell number is calculated.

[4] = test system: Jurkat T cells; details: 50 μM, cited from earlier work
[5] = test system: MDA-MB-231 cells; experiment: MTT assay, MDA-MB-231; format: cell-based, human; details: MDA-MB-231, 50 μM, 24 hours
Description: MCF-7, MDA-MB-231, PC-3 and PCI-13 cells were grown to 50% confluency in a 24 well plate. […] A stock 5 mg/ml of MTT in serum-free media was then added to the cell cultures at a final concentration of 1 mg/ml, followed by a 3 hour incubation at 37° C. After cells crystallized, the media was removed and DMSO added to dissolve the metabolized MTT product. The absorbance was then measured on a Wallac Victor 1420 Multilabel counter at […].

[6] = test system: caspase-8; details: Jurkat T cells; for increase of caspase-8 levels over untreated cells: 8 hours
Description: (§1) J. Biol Chem 276:13322-30 with some modifications. Briefly, a prepared protein extract (20 μg) is incubated in a buffer containing 50 mM Tris/pH 8.0 along with each respective caspase substrate at 20 μM in a 96 well plate. The reaction mixture is incubated at 37° C. for 2 h. After incubation, the liberated fluorescent AMC or AFC groups are measured by a Wallac Victor 1420 Multilabel counter (Turku, Finland) with 355/460 […] and 405/535 nm filters, respectively.

[7] = test system: caspase-9; details: Jurkat T cells
Description: as §1

[8] = test system: PCI-13 cells; details: PCI-13, 50 μM, 48 hour
Description: (§2) To assay nuclear morphology, both the detached or remaining attached solid tumor cells were washed with PBS, fixed with 70% ethanol for 1 hour, and stained with Hoechst 33342 (50 μM) for 30 minutes. The nuclear morphology of cells was visualized by a fluorescence microscope.
(§3) Both attached and detached cell populations were then used for detection of apoptotic nuclear changes.

[9] = test system: MDA-MB-231 cells; details: MDA-MB-231, 50 μM, 48 hour
Description: as §2, §3

[10] = test system: PC-3 cells; details: PC-3, 50 μM, 48 hour
Description: as §2, §3

[11] = test system: MCF-7 cells; details: MCF-7, 50 μM, 24 hour
Description: as §2, §3

COC1C(=O)N(SC)C1c1ccccc1Cl (racemic) [lactam 1]
cell death (trypan blue) [1]: 9% | inhibition of colony formation [2]: 91% | cell death (trypan blue) ([3]; 30 μM, 24 h): 42% | cell death (trypan blue) ([3]; 50 μM, 3 h): 11% | non-viable cell population (trypan blue) ([3]; 50 μM, 4 hours): 20% | trypan blue-positive cells ([3]; 50 μM, 6 h): 20% | non-viable cell population / cell death (trypan blue) ([3]; 50 μM, 24 h): 60% and ~52% and ~50% | loss of membrane permeability (trypan blue incorporation) ([3]; 50 μM): ~30% | loss of membrane permeability (trypan blue incorporation) ([3]; 60 μM): ~80% | loss of membrane permeability (trypan blue incorporation) ([3]; 20-40 μM): ~10% | sub-G1 population ([4]; 12 h (Smith et al., 2002)): 10% | sub-G1 population ([4]; 24 h (Smith et al., 2002)): 16% | decrease of cellular viability (MTT) [5]: 80% | time at which caspase-8 activity was detected ([6]; 50 μM): 2 h | time of maximal caspase-8 activity ([6]; 50 μM): 6 h | increase of caspase-8 levels over untreated cells ([6]; 50 μM): 5 fold | increase of caspase-8 levels over untreated cells ([6]; 30 to 40 μM): 2 fold | time at which caspase-9 activity is first detected ([7]; 50 μM): 4 h | caspase-9 activity ([7]; 8 hours, higher concentrations of lactam 1): Higher levels | nuclear morphology of detached cells (Hoechst 33342) [8]: apoptosis-specific nuclear morphology | nuclear morphology of detached cells (Hoechst 33342) [9]: apoptosis-specific nuclear morphology | nuclear morphology of detached cells (Hoechst 33342) [10]: apoptosis-specific nuclear morphology | cells detached [11]: ~50% | nuclear morphology of detached cells (Hoechst 33342) [11]: typical apoptotic nuclear condensation and fragmentation
